Results as given in patent US9051595B2, “Malt1 specific cleavage in assay and screening method” (University of Lausanne, priority 2007, dated 2015).
“Also recorded” adds a separate entry of the source. Peptide text beside a SMILES is read from it. * marks the point of attachment. Cbz = O=C(OCc1ccccc1)*; CH2F = FC*

Assays:
Type in all cases: cell-based, human
Bcl10 [1] = assay: Western blot for the faster migrating Bcl10 species (Bcl10 cleavage) in stimulated Jurkat cells pre-treated with inhibitors; details: for generation of the faster migrating Bcl10 species: Jurkat cells pre-incubated 30 min with inhibitor, stimulated with CD3/CD28, FIG. 2a; for anti-CD3/CD28-induced reduction in the apparent molecular weight of Bcl10: stimulated with anti-CD3 and anti-CD28, FIG. 5c
Protocol: For short term stimulations, cells were re-suspended at a density of 5×10^7 cells/mi in RPMI with 0.5% serum and pre-warmed for 10 min at 37° C. before addition of the stimulating agent.
T-cell stimulation was initiated by addition of PMA (10 ng/ml, Alexis) and ionomycin (1 μM, Calbiochem) (P/I) or a combination of anti-human CD3ε (10 μg/ml of OKT3, Apotech) and anti-CD28 (10 μg/ml of CD28.2, Immunotech) antibodies (CD3/CD28), immediately followed by addition of 5 μg/ml of cross-linking goat anti-mouse antibody (Southern Biotech).
Stimulations were stopped by addition of ice-cold Tris-NaCl buffer (20 mM Tris-HCl pH 7.4, 150 mM NaCl), and pelleted cells were lysed in Tris-NaCl lysis buffer containing 1% NP40, proteinase inhibitors (Complete, Roche) and phosphatase inhibitors (cocktails I and II, Sigma).
Postnuclear cell lysates were boiled with reducing SDS-sample buffer and analyzed on 16×20 cm gels by 15% SDS-PAGE according to Anderson, N. L. & Anderson, N. G. Analytical techniques for cell fractions. XXII. Two-dimensional analysis of serum and tissue proteins: multiple gradient-slab gel electrophoresis. Anal Biochem 85, 341-54 (1978).
Primary antibodies used are monoclonal mouse anti-phospho ERK (Sigma), rabbit anti-phospho-IκBα (5A5, Cell Signalling), rabbit anti-IκBα (Sigma), and rabbit anti-Bcl10 (H-197, Santa Cruz).
In a first approach, Jurkat cells were pre-incubated with either the pan-PKC inhibitor bisindolyl-maleimide VIII (BIM) or with Gö6976, an inhibitor of classical (Ca2+- and DAG-dependent) PKC isoforms, before stimulation with CD3/CD28 as indicated in Example 1. For pre-incubation, the cells were incubated with […] Gö6976 (Calbiochem) or 500 nM Bisindoleylmaleimide VIII acetate (Alexis), or solvent control for 30 min at 37° in RPMI with 0.5% serum directly prior to stimulation.
Cell lysis and western blots was done as in Example 1. The primary antibody for the experiment with VSV-tagged wt or VSV-tagged Carma1-DN and Carma1-coiled-coil construct is monoclonal mouse anti-VSV (P5D4, Sigma). For Carma1, a rabbit anti-Carma1 (AL220, Alexis) antibody was used.
(§1) For testing if the observed proteolytic activity is an indirect effect of Malt1 on other proteases, Jurkat cells were pretreated with the lysosomal or proteasomal inhibitors (NH4^+/leupeptin or MG132) or solvent control before stimulation with PMA and ionomycin, and postnuclear lysates were analyzed by Western blot as indicated.
(§2) In an analogue experiment, Jurkat cells were pretreated with the pan-caspase inhibitor zVAD-ink or solvent control, and stimulated with anti-CD3 and anti-CD28 antibodies or hexameric recombinant FasL for the indicated times. Postnuclear lysates were analyzed by Western blot with the indicated primary antibodies (FIG. 5c). A non-specific band (n.s.) of the anti-Bcl10 blot served as a loading control.

P-IκB = assay: Western blot for P-IκB in PMA/ionomycin-stimulated Jurkat cells; details: Jurkat cells pretreated with inhibitor, PMA and ionomycin; FIG. 5b
Protocol: as §1

caspase-8 = assay: FasL-induced caspase-8 activation in Jurkat cells (Western blot); details: Jurkat cells pretreated with inhibitor, hexameric recombinant FasL; FIG. 5c
Protocol: as §2

IL-2 = IL-2 production of Jurkat cells stimulated with Raji cells and superantigen SEE; details: FIG. 11e
Protocol: To test the efficiency of inhibitors, Jurkat T cells stimulated or not with PMA and ionomycin for 20 min are mechanically lysed in cleavage assay buffer (see example 4) in the absence or presence of increasing concentrations of a irreversble cell permeable inhibitor peptide (z-VRPR-fink). This inhibitor was designed based on an optimal substrate cleavage sequence reported for the plant metacaspase AtMC9 (see ref. by Vercammen et al. 2006, J. Mol. Biol., 364(4):625-36). Malt1 protease activity is determined as described in example 4. […] Moreover, experiments are performed to assess the effect of the inhibitor on anti-CD3/CD28-induced NF-κB activation in Jurkat T cells, on IL-2 production of Jurkat cells stimulated by incubation with antigen-presenting cells (Raji cells in combination with the superantigen SEE) and on stimulation-induced adhesion to fibronectin (see example 7)).

Bcl10 [2] = assay: Activation-induced cleavage of Bcl10 in living Jurkat T cells and CTLs (Western blot); details: Jurkat T cells or CTLs pre-incubated 1 h with inhibitor, PMA and ionomycin; FIGS. 11b, c
Jurkat T cells = assay: Stimulation-induced adhesion of Jurkat T cells to fibronectin; details: FIG. 11f
Protocol: Central areas of tissue culture dishes (35-mm×10-mm) were coated for 90 min at 25° C. with 50 μl of fibronectin solution (40 μg/ml; Roche). Coated dishes were washed three times with PBS (without Ca2+ and Mg2+) and were blocked for 2 h with 1% (wt/vol) BSA in PBS. Cells were washed with Hank's balanced-salt solution (Gibco) and were left unstimulated or were stimulated at 37° C. for 30 min with MnCl2 (1 mM) or PMA (100 ng/ml), or for 5 min with anti-human CD3 and anti-CD28 (see example 1). Subsequently, cell suspensions were added to fibronectin-coated tissue culture dishes followed by incubation for additional 30 min at 37° C. Non-adherent cells were removed by washing of the dishes three to five times with Hank's balanced-salt solution. Adherent cells were counted in six separate fields with a microscope with an ocular counting reticule.
To test the efficiency of inhibitors, Jurkat T cells stimulated or not with PMA and ionomycin for 20 min are mechanically lysed in cleavage assay buffer (see example 4) in the absence or presence of increasing concentrations of a irreversble cell permeable inhibitor peptide (z-VRPR-fink). This inhibitor was designed based on an optimal substrate cleavage sequence reported for the plant metacaspase AtMC9 (see ref. by Vercammen et al. 2006, J. Mol. Biol., 364(4):625-36). Malt1 protease activity is determined as described in example 4. […]

NF-κB = assay: anti-CD3/CD28-induced NF-κB activation in Jurkat T cells; details: FIG. 11d

Cn1cc(C2=C(c3cn(CCCN)c4ccccc34)C(=O)NC2=O)c2ccccc21 [BIM, bisindolyl-maleimide VIII]
generation of the faster migrating Bcl10 species (Bcl10 [1]): prevented

Cn1c2ccccc2c2c3c(c4c5ccccc5n(CCC#N)c4c21)CNC3=O [Gö6976]
generation of the faster migrating Bcl10 species (Bcl10 [1]): not Gö6976 prevented

CC(C)C[C@@H](C=O)NC(=O)[C@H](CC(C)C)NC(=O)[C@H](CC(C)C)NC(=O)OCc1ccccc1 [MG132] (Cbz-Leu-Leu-Leu-aldehyde)
generation of the faster migrating Bcl10 species corresponding to Bcl10 cleavage (Bcl10 [1]; Jurkat cells pretreated with inhibitor, stimulated with PMA and ionomycin, FIG. 5a, 5b): did not affect; also recorded: lack of an effect | stabilization of P-I[…]B (P-IκB): efficiently stabilized

COC(=O)C[C@H](NC(=O)[C@H](C)NC(=O)[C@@H](NC(=O)OCc1ccccc1)C(C)C)C(=O)CF [zVAD-fmk] (Cbz-Val-Ala-Asp(OMe)-CH2F)
anti-CD3/CD28-induced reduction in the apparent molecular weight of Bcl10 (Bcl10 [1]; Jurkat cells pretreated with inhibitor): no effect | anti-CD3/CD28-induced reduction in the apparent molecular weight of Bcl10 (Bcl10 [1]; Jurkat cells pretreated with inhibitor, listed as Z-VAD-fmk): lack of an effect | FasL-induced caspase-8 activation (caspase-8): potently inhibited

z-VRPR-fmk (Cbz-VRPR-CH2F)
capacity of T cells to produce IL-2 (IL-2): impairs | activation-induced cleavage of Bcl10 (Bcl10 [2]): reduction | capacity of T cells to adhere to fibronectin upon T-cell activation (Jurkat T cells): impairs | capacity of T cells to activate NF-κB (NF-κB): impairs
